Converted amounts (≈) assume the structure as drawn.
Assays:
[1] = unmodified C60-fullerene; cited from earlier work
[2] = tested on: heart muscle tissue (rat myocardium) under hypoxia; format: in vivo
Description: Same tests were also performed in inhalation hypoxia model specified below (FIG. 14-16).
The following in vivo experimental hypoxia models were employed:
(1) Medicinal hypoxia syndrome A (1-methylnicotineamide (MNA), 10-20 mg/kg i.v. once per 24 hrs); […] (2) Medicinal hypoxia syndrome B (DXR 60-80 mg/kg i.v. once per 24 hrs); (3) The oxygen depleted inhalation model (10-20 day long exposition of rats to the artificial gas mixture to breath with, 12-16% oxygen/84-88% nitrogen, v/v).
Male adult Wistar Albino Glaxo rats (180-220 gms) were used, 3-4 animals per each experimental point.

[3] = tested on: heart muscle mitochondria membranes; assay: Retention of the drug by heart muscle mitochondria membranes after a single i.v. injection; format: in vivo
[4] = Cationite capacity; format: physicochemical

c12c3c4c5c1c1c6c7c2c2c8c3c3c9c4c4c%10c5c5c1c1c6c6c%11c7c2c2c7c8c3c3c8c9c4c4c9c%10c5c5c1c1c6c6c%11c2c2c7c3c3c8c4c4c9c5c1c1c6c2c3c41 [C60-fullerene]
solubility [1]: 1.3e-05 ng/mL (≈ 1.8e-05 nM)

fullerene (C60)-2-(butadiene-1-yl)tetra(o-γ-aminobutyryl-o-phtalyl)ferroporphyrin [PMC16]
protecting the heart muscle tissue from the damaging impact promoted by hypoxia ([2]; hypoxia of any sort, even at extra low doses): efficient | safety of long term multiple administration of extra low doses ([2]; in vivo): totally safe | effect in medicinal hypoxic cardiotoxicity cases (DXR, MNA) ([2]; long term multiple administration, extra low doses): marked prophylactic and therapeutic effect | time the drug molecule is retained by heart muscle mitochondria membranes [3]: not less than a week | cationite capacities [4]: 320-370 meqv/mmol

Reference: US20080317876A1, “USE OF A MAGNESIUM ISOTOPE FOR TREATING HYPOXIA AND A MEDICAMENT COMPRISING THE SAME” (priority 2007, published 2008)
